Measurements published in patent US8097238B2, “Cell targeting conjugates” (Peter MacCallum Cancer Institute, priority 2004, dated 2012).
Where “and” joins values, the source holds several entries; their conditions need not be identical. Equal entries are not always repeated. Starred links: 1 amine or outer side, 2 acyl side, 3 side chain; linkers in the order of their positions; H or OH if unused. Positions of bridges follow the written chain, without caps; N, C: chain ends. Non-standard residues stand in square brackets, D forms with d. Residues, ends and D or L forms follow the SMILES beside them. Chains are numbered I, II in the order given. Actinocin(9to1) = Cc1c2oc3c(C)ccc(C(=O)[*:1])c3nc-2c(C(=O)[*:2])c(N)c1=O; NMeV = CN[C@H](C(=O)O)C(C)C; Sar = CNCC(=O)O

Tests used:
DNA = conditions: literature values; cited from earlier work
plasmid DNA [1] = assay: Plasmid DNA breakage, ^124I/^125I double isotope experiments; format: biochemical
Excerpt: In experiments exactly analogous to those described in Example 25, induction of DNA double-strand breaks was investigated for ^124I-iodoHoechst 33258. The results of preliminary experiments (to our knowledge the first such experiments done with DNA-associated ^124I) are shown in FIG. 15 and Table 4.

plasmid DNA [2] = assay: Plasmid DNA breakage, ^123I/^125I double isotope method; format: biochemical
Excerpt: The experimental design exploits the plasmid DNA assay system, and agarose gel electrophoresis, as described previously to evaluate DNA breakage by the labelled minor groove binding DNA ligand, ^125I-iodoHoechst 33258 (Lobachevsky, Karagiannis and Martin 2004).
The accumulation of DNA single-stranded breaks and DNA double-stranded breaks is monitored by quantitation of the decline in the fraction of intact supercoiled plasmid (S), and the corresponding increase in the fractions of relaxed (R) and linear (L) species, with the progressive accumulation of decay events. Various assumptions enable the derivation of the relationship between the parameters S, R and L (or their normalised counterparts S′, R′ and L′), the number of decay events (n), and for example, the yield of double-stranded breaks per decay (d) of isotope in DNA-bound ligand. […] Accordingly, a double isotope strategy was developed, using a mixture of ^123I- and ^125I-iodoHoechst 33258. This approach yields a ratio d values, providing an estimate of the relative efficiency (^123I relative to ^125I) for double-strand breaks per decay, which is independent of f.
The basis of the double isotope method is apparent from the following relationship:
Where n1 is the number of ^123I decays, and n1m is the maximum (ie at time=infinity) number of ^123I decays.
A plot of the LHS term of the above equation versus n2 (the number of ^125I decay events in the incubation mixture) yields a two phase curve, the 2nd phase of which approaches a straight line (when n1=n1m). The values for the apparent breakage DNA dsb efficiency of ^123I and ^125I decays (da1 and da2, respectively) are obtained from the y intercept and from the gradient of the asymptote of the second phase of the curve, as shown in FIG. 14.
The apparent breakage efficiency is related to the actual efficiency of DNA-bound decay events, d, by the expression: da=df+δA
Where δA is the term for the “external” component of damage, arising from decay of non-DNA-bound isotope, which can be ignored because of the particular conditions of the
[formula] experiment, particularly, a low DNA concentration, A. Thus analysis of the data as exemplified in FIG. 14 provides the ratio of breakage efficiencies of ^123I versus ^125I decays.

K562 cells [3] = conditions: survival curve studies (Karagiannis, Lobachevsky and Martin 2000); cited from earlier work
K562 cells [4] = assay: Accumulation of cell-associated ^125I-activity in K562 cells; format: cell-based, human; conditions: 200 nM protein, 37° C.
Description: At the required time intervals (0-20 hours), the cell-associated and extracellular ^125I-ligands were separated by centrifugation at 400×g for 3 minutes and the cell-associated ^125I-activity and the ^125I-activity in the supernatants were counted in a […] (80% counting efficiency; Perkin Elmer Inc.). To elucidate whether the meta-^127I/^125I-iodoHoechst-transferrin conjugates were internalized specifically via transferrin receptor mediated endocytosis, assays were performed in parallel in the presence of 100-fold molar excess of unlabelled diferric transferrin.
In parallel with the experiment described in Example 19, cultures of K562 cells with one of the three labeled DNA ligand—transferring conjugates were incubated at 0° C., a condition that inhibits receptor-mediated endocytosis. Other assays were performed in parallel at 37° C. in the presence of the metabolic inhibitors […] (50 mM) and sodium azide (0.1% (w/v)), which are known to inhibit transferrin receptor mediated endocytosis (Ciechanover, et al. 1983).

K562 nuclei [5] = assay: Accumulation of nuclear-associated ^125I-activity in K562 nuclei; format: cell-based, human; conditions: 200 nM protein, 37° C.
Description: After incubation for 5 minutes at 0° C., an equal volume of hypotonic buffer containing 1% (v/v) Triton X-100 was added while vortexing, and the cells were sheared by passage through a 22-gauge needle. The nuclei were separated from the cytosol by centrifugation at 1000×g for 10 minutes and the nuclear preparations were washed in hypotonic buffer and pipetted to avoid clumping. The concentration of nuclei isolated from each sample was determined by counting with a hemocytometer and the nuclear- and cytoplasm-associated ^125I-activity was determined by β-counting. In parallel assays, the nuclei were washed with 10 mM Tris-HCl, 140 mM NaCl, pH 8.3 (isotonic buffer) by centrifugation at 1000×g for 10 minutes and the nuclear associated ^125I-activity and the ^125I-activity in the supernatants was determined by β-counting.

K562 cells [6] = assay: Clonogenic survival of K562 cells after ^125I-ligand incubation; format: cell-based, human; conditions: 20 hours at 37° C., 200 nM protein
Description: K562 cells were washed three times in serum-free RPMI 1640 containing 20 mM HEPES and 80 I.U./ml gentamicin. In the representative experiment, cells (5×10^5 per ml) were incubated with a series of radioactive doses of ^125I-diferric transferrin (highest dose 3.8 μCi/ml; specific activity 18.9 Ci/mmole, 200 nM protein concentration) or with a series of radioactive doses of the required meta-^127I/^125I-iodoHoechst-transferrin conjugate (highest doses 17.5, 10.1 and 18.3 μCi/ml, specific activities 87.5, 53.3 and 98 Ci/mmole protein for the disulphide, acylhydrazone and amide linked meta-^127I/^125I-iodoHoechst-transferrin conjugates, respectively, protein concentration 200 nM, conjugation number 2.8, 2.9 and 3.1 for the disulphide, acylhydrazone and amide linked conjugates, respectively) for 20 hours at 37° C. To ensure that cytotoxicity was mediated by decay of ^125I, control assays were performed in parallel with unlabelled meta-^127I-iodoHoechst-transferrin conjugates. Furthermore, to determine whether the ^125I-induced cytotoxicity was mediated by transferrin receptor-mediated endocytosis, control assays were performed in parallel in the presence of a 50-fold molar excess of unlabelled diferric transferrin. Following incubation, the cell-pellets were isolated by centrifugation at 400×g for 3 minutes and suspended in the α-modification of Eagle's medium containing 20% (v/v) fetal bovine serum, 20 mM HEPES, 2 mM L-glutamine and 80 I.U./ml gentamicin. An appropriate cell number from each of the samples was then cloned in semi-solid (0.33% (w/v)) noble agar in 6-well microtiter plates.

K562 nuclei [7] = assay: Nuclear fluorescence of K562 cells after photolytic deiodination (quantitative fluorescence microscopy); format: cell-based, human
Description: The delivery of ortho-iodoHoechst to K562 nuclei following incubation of cells with the acylhydrazone linked transferrin-ortho-iodoHoechst conjugate was examined by quantitative fluorescence microscopy, after photolytic deiodination. K562 cells in RPMI 1640 containing 3% FBS, 20 mM HEPES and 80 I.U./ml gentamicin were incubated with the acylhydrazone linked conjugate ([…], conjugation number 1.5) for 24 hours at 37° C. Following incubation the cells were irradiated with 200 Jm^−2 UVA to generate in situ the dehalogenated ligand, which is much more fluorescent than the iodinated ligand. The cells were then washed by centrifugation and the cell-pellet was resuspended in 50 μl PBS without Ca^2+/Mg^2+. Aliquots (20 μl) were placed onto microscope slides and were allowed to air-dry. Prior to microscopy a drop of 30% PBS and 100 μM dithiothreitol in Tissuetek was added to the cells. K562 cells were observed using a fluorescence microscope (Zeiss) and a standard Hoechst filter set. Analysis of nuclear fluorescence was performed using a Bio-Rad Molecular Imager® Fx (Bio-Rad Laboratories, Hercules, Calif., USA) and Quantity One™ 4.1.1 software.

[8] = incubation period between 4-20 hours

In the case of `Cc1c2oc3c(C)ccc(C(=O)N[C@@H]4C(=O)N[C@H](C(C)C)C(=O)N5CCC[C@H]5C(=O)N(C)CC(=O)N(C)[C@@H](C(C)C)C(=O)O[C@@H]4C)c3nc-2c(C(=O)N[C@@H]2C(=O)N[C@H](C(C)C)C(=O)N3CCC[C@H]3C(=O)N(C)CC(=O)N(C)[C@@H](C(C)C)C(=O)O[C@@H]2C)c(N)c1=O` [Actinomycin D] (I: T[dV]P[Sar][NMeV] / II: T[dV]P[Sar][NMeV]; ester I:1-I:C, II:1-II:C; linker I:N-II:N via Actinocin(9to1)), the “association constant for equilibrium binding to DNA (affinity)” value (DNA) is given as “about 10^6 M^−1”.
For `CN1CCN(c2ccc3nc(-c4ccc5nc(-c6ccc(O)c(I)c6)[nH]c5c4)[nH]c3c2)CC1` [^124I-iodoHoechst 33258], the “efficiency of DNA-associated decays in DNA double-strand break induction” value (plasmid DNA [1]; compared with the ^123I counterpart) was “at least as efficient as those of the ^123I counterpart”, the “da1(^124I)/da2(^125I)” value (plasmid DNA [1]; preliminary experiments) was 0.76 and 0.71 and 0.82 and 0.75 and the “Average da1(^124I)/da2(^125I)” value (plasmid DNA [1]; samples A2, A3, B1, B2) was 0.76 ± 0.05.
In the case of `CN1CCN(c2ccc3nc(-c4ccc5nc(-c6ccc(O)c(I)c6)[nH]c5c4)[nH]c3c2)CC1` [^125I-iodoHoechst 33258, reference compound], the “da2(^125I), apparent DNA dsb breakage efficiency” value (plasmid DNA [2]; DMSO added to 10% (D series)) is given as 0.252 and 0.248 and 0.258, the “da2(^125I), apparent DNA dsb breakage efficiency” value (plasmid DNA [2]; aqueous buffer (N series)) is given as 0.413 and 0.397 and 0.474 and the “decays corresponding to a lethal event” value (K562 cells [3]) is given as “about 130 ^125I decays per nucleus”.
For `COc1cccc2c1C(=O)c1c(O)c3c(c(O)c1C2=O)C[C@@](O)(C(=O)CO)C[C@@H]3O[C@H]1C[C@H](N)[C@H](O)[C@H](C)O1` [doxorubicin], the “association constant for equilibrium binding to DNA (affinity)” value (DNA) is given as “about 10^6 M^−1”.
In the case of “^125I-transferrin: ^125I-labelled human diferric transferrin, unconjugated comparator [reference compound]”, the “rate of increase of cell-associated ^125I-activity” value (K562 cells [4]; after first 2 hours until approximately 4-5 hours) is reported as “approximately 0.8 fmoles ^125I-ligand/cell/minute”, the “rate of increase of cell-associated ^125I-activity” value (K562 cells [4]; approximately the first 2 hours of incubation) is reported as “approximately 5.2 fmoles ^125I-ligand/cell/minute” and the “rate of decrease in cell-associated ^125I-activity” value (K562 cells [4]; incubation period between 5-20 hours) is reported as “approximately 0.2 fmoles ^125I-ligand/cell/minute”. The “accumulation of ^125I-activity in the nuclei” value (K562 nuclei [5]) was “not observed” and the “dose required to produce on average one lethal event per cell (D37)” value (from here on “dose required to produce … per cell (D37)”) (K562 cells [6]) was 31.8 μCi/ml.
In the case of “acylhydrazone linked meta-^127I/^125I-iodoHoechst-transferrin conjugate: meta-^127I/^125I-iodoHoechst conjugated to thiolated transferrin via an acylhydrazone linkage (Example 15, FIG. 3)”, the “rate of increase of cell-associated ^125I-activity” value (K562 cells [4]; first 4 hours of incubation) is reported as ~10.4 fmoles ^125I-ligand/cell/minute, the “rate of increase of cell-associated ^125I-activity” value (K562 cells [4]; [8]) is reported as ~5.7 fmoles ^125I-ligand/cell/minute and the “rate of increase of nuclear-associated ^125I-activity” value (K562 nuclei [5]) is reported as 0.38 fmole ^125I-ligand/cell/minute. The “dose required to produce … per cell (D37)” value (K562 cells [6]) was 3.8 μCi/ml.
With “acylhydrazone linked transferrin-ortho-iodoHoechst conjugate: transferrin linked to ortho-iodoHoechst via an acylhydrazone linkage, conjugation number 1.5” the “nuclear fluorescence in K562 cell nuclei” value (K562 nuclei [7]; conjugation number 1.5, 24 hours at 37° C., then 200 Jm^−2 UVA) was “significant fluorescence” and the “inhibition of nuclear fluorescence” value (K562 nuclei [7]; in the presence of 100-fold molar excess unmodified transferrin) was “largely inhibited”.
In the case of “amide linked meta-^127I/^125I-iodoHoechst-transferrin conjugate: meta-^127I/^125I-iodoHoechst conjugated to transferrin via an amide linkage (Example 16, FIG. 4)”, the “rate of increase of cell-associated ^125I-activity” value (K562 cells [4]; first 4 hours of incubation) is reported as ~3.6 fmoles ^125I-ligand/cell/minute, the “rate of increase of cell-associated ^125I-activity” value (K562 cells [4]; [8]) is reported as ~2.6 fmoles ^125I-ligand/cell/minute and the “rate of increase of nuclear-associated ^125I-activity” value (K562 nuclei [5]) is reported as 0.13 fmole ^125I-ligand/cell/minute. For the same molecule, the “dose required to produce … per cell (D37)” value (K562 cells [6]) was 8.9 μCi/ml.
For “disulphide linked meta-^127I/^125I-iodoHoechst-transferrin conjugate: meta-^127I/^125I-iodoHoechst conjugated to thiolated transferrin via a disulphide linkage (Example 14, FIG. 2)”, the “rate of increase of cell-associated ^125I-activity” value (K562 cells [4]; first 4 hours of incubation) was “approximately 7.2 fmoles ^125I-ligand/cell/minute”, the “rate of increase of cell-associated ^125I-activity” value (K562 cells [4]; [8]) was “approximately 6.1 fmoles ^125I-ligand/cell/minute” and the “rate of increase of nuclear-associated ^125I-activity” value (K562 nuclei [5]) was 0.21 fmole ^125I-ligand/cell/minute. For the same molecule, the “dose required to produce … per cell (D37)” value (K562 cells [6]) was 6.0 μCi/ml.
